Patent US7265097B2, “Methods of drug delivery using sulphated chitinous polymers” (Chitogenics, Inc., priority 2002, dated 2007)

Columns and labels:
[1] = design: species or system rats; conditions: rat, in vivo
Protocol: The effect of S-NOCCs (N-sulphated N,O-carboxymethyl chitosans) as primary carriers in vivo was tested using rats. Male Wistar rats (SPF status, approximately 250 g) were obtained from Charles River (NL). The animals were fasted for 16 hours before administration with free access to water. The animals were anesthetized with Hypnorm (fentanyl citrate) and Dormicum (midazolam). The body temperature of the rats was kept at 36-37° C. and was monitored throughout the experiment.
Reviparin LMWH (Reviparin, Knoll, 108 Anti-XaU/mg) solution was prepared in physiological saline at 625 anti Xa U/ml.
S-NOCC was tested at two viscosities 40 and 60 cps (S-NOCC40 and S-NOCC60), representing a lower and higher molecular weight chitinous polymer respectively. The S-NOCCs were dissolved at 3% (w/v) in the reviparin solution to form a viscous gel.
In order to administer the LMWH formulations, a thin Teflon tube (˜1 mm i.d.) was used for the control (no polymer). In order to administer the S-NOCC formulations, a polypropylene tube with i.d. ˜3 mm was used to facilitate the viscous gels for their administration. Both tubes were connected to a syringe.
The abdomen of the animals was opened by an incision and the stomach was moved towards the incision point. A small incision at the stomach was made to allow each tube to be guided via the pylorus to the beginning of the duodenum (first 2-3 cm.). Formulation were administered slowly over 5 min and at +/− 2 ml normalized for the body weight of each animal to assure administration of 5000 Anti-Xa U/kg.
Blood samples, ˜225 μl, were collected from the tail vein capillaries (after incision) in Eppendorf vials containing 25 μl sodium citrate 3.8%. The samples were centrifuged at 13000 rpm for 20 min.
Analysis of samples was performed using the Chromostrate heparin Anti-Xa assay (Organon Teknika, NL). […] The release of pNA was measured by an end-point method at 405 nm in an EL808 ultra microplate reader (Biotek Instruments Inc.). […]

Caco-2 cells = test: TEER of Caco-2 cells treated with sulphated chitinous polymers; format: cell-based
Protocol: The Caco-2 intestinal epithelial cells used in this example form apically tight junctions that seal the paracellular pathways. Disruption of the tight junctions' barrier leads to increased paracellular permeability of hydrophilic drugs that are poorly absorbed across the intestine. The integrity of the tight junctions can be determined by measuring decreases in the transepithelial electrical resistance (TEER) when the tight junctions are opened.
Caco-2 cell cultures were seeded initially from cryovials (stored in liquid nitrogen) to flasks and treated with trypsin. After trypsin treatment, cells were seeded on the Costar Transwell filters (24-well plates, Costar Europe, Badhoevedorp, The Netherlands) at a seeding density of 10^4 cells/cm^2. Dulbecco's Modified Eagle's Medium (DMEM, Sigma, Bornem; Belgium; pH=7.4), supplemented with 1% nonessential amino acids, 10%, fetal calf serum (Hyclone, Greiner, The Netherlands), benzyl-penicillin G (160 U/ml) and streptomycin sulfate (100 μg/ml) (Sigma) was used as culture medium, and was added to both the donor and the acceptor compartment. […]
S-OCC(N-sulphated O-carboxymethyl chitosan), S-NOCC(N-sulphated N,O-carboxymethyl chitosan), and S-SAN (N-sulphated chitosan) were applied on the Caco-2 cell cultures and TEER was measured for 4 hours. […] The TEER was also recorded at 24 hrs after application to investigate the viability of the monolayers.

In the case of “N-sulphated N,O-carboxymethyl chitosan [S-NOCC40]”, the “absorption of the LMWH (plasma anti-Xa level, relative to antithrombotic level)” value [1] was no less than 0.2 Anti-Xa U/ml and the “time over which absorption of LMWH was sustained” value [1] was 6 h.

With Reviparin [reference compound] the “intestinal absorption of LMWH” value [1] was “limited”.

In the case of Sulphated Chitosan [S-SAN], the “disruption of the tight junctions between Caco-2 epithelial cells” value (Caco-2 cells) was “able to effectively disrupt the tight junctions”.
